# Results from PubChem BioAssay AID2060509 (Molecular Pharmacology Branch, DTP, NCI, 2025).
# Tested on: 485176-168-R4-J1-PDC spheroids with HUVEC/MSC, viability
# Assay: Anticancer human tumor 485176-168-R4-J1-PDC patient-derived pancreatic adenocarcinoma cell line growth inhibition [GQUAD]
# Conditions: for IC50: curve of first compound; for viability, T/C: stronger effect = lower value
# Source text: DNA G-quadruplex Stabilizer Agents in Combinations in Complex Spheroids
# A high-throughput screen of multi-cell type tumor spheroids was designed to identify active combinations of DNA G-quadruplex stabilizer agents and targeted small molecules. Complex spheroids include a stromal component modeled by human endothelial cells (HUVEC) and fibroblasts modeled by human mesenchymal stem cells (MSCs). The concentration ranges selected for each drug and investigational agent were based upon clinically achievable concentrations if the clinical Cmax of the agent was known.
# Compounds. The drugs and investigational agents: pidnarulex (CX-5461; NSC782164), APTO-253 (NSC789042), BRACO-19 (NSC847499), peposertib (NSC802822), ceralasertib (NSC780249), elimusertib (NSC800525), camonsertib (NSC841442), AZD-1390 (NSC803789), olaparib (NSC753686), talazoparib (NSC767125), ART-558 (NSC835418), sotorasib (NSC818433), MRTX-1133 (NSC836407), SN-38 (NSC673596), topotecan (NSC609699), etoposide (NSC141540), doxorubicin (NSC123127), gemcitabine (NSC613327), 5-fluorouracil (NSC19893), paclitaxel (NSC125973), vemurafenib (NSC761431), panobinostat (NSC761190), R-306465 (JNJ-16241199; NSC773264), adavosertib (NSC754352), TP-3654 (NSC805149), carboplatin (NSC241240), KSQ-4279 (NSC840948), and staurosporine (NSC755774) were obtained from the National Cancer Institute (NCI) Developmental Therapeutics Program Chemical Repository (34). The FDA-approved anticancer drug set is available from the NCI Developmental Therapeutics Program. […] The stock solutions were prepared in dimethyl sulfoxide (DMSO, Sigma-Aldrich, St. Louis, MO, cat. D2650) at 800-fold the tested concentration and stored at -70 degrees C prior to their use. All drugs and investigational agents were tested over a range starting from a high concentration at or near the clinical Cmax and decreasing in half-log increments. If the clinical Cmax for an agent had not been determined, the highest concentration tested was 10 microM.
# 2.3 Cell Culture. All cells were maintained in an incubator at 37 degrees C and 5% CO2 with 95% humidity. The PDC lines were cultured according to standard operating procedures established by the NCI PDMR. All PDCs were thawed and cultured in Matrigel-coated flasks prepared with a working solution of 1X Ham's F-12 nutrient mix, without supplementation (Invitrogen, cat. 11765054), 100 U/mL penicillin-streptomycin (Invitrogen, cat. 15140122), and 2.5% Matrigel (Corning Inc., cat. 354248) for the first three passages. The 857933-349-R-J2-PDC line was cultured in 6C/Colon 1B media, which includes advanced DMEM/F-12 (Thermo Fisher Scientific, cat. 12634028), 10 mM HEPES (Thermo Fisher Scientific, cat. 15630080), 1X GlutaMAX supplement (Thermo Fisher Scientific, cat. 35050061), 0.1 mg/mL primocin (InvivoGen, cat. ant-pm-2), 10% defined fetal bovine serum, heat inactivated (HyClone Laboratories Inc., cat. SH30070.03HI), 50% L-WRN conditioned media (ATCC, cat. CRL-3276), 1.25 mM N-Acetyl-L-cysteine (Sigma-Aldrich, cat. A9165), 10 mM nicotinamide (Sigma-Aldrich, cat. N0636), 1X B-27 supplement (Thermo Fisher Scientific, cat. 17504044), 1X N-2 supplement (Thermo Fisher Scientific, cat. 17502048), 10 microM Y-27632 dihydrochloride (Tocris Bioscience, cat. 1254), and 50 ng/mL human EGF recombinant protein (Thermo Fisher Scientific, cat. PHG0311). The 485176-168-R4-J1-PDC line was cultured in Panc media, which includes all 6C/Colon 1B media components plus 100 ng/mL human FGF-10 (Thermo Fisher Scientific, cat. 100-26), 500 nM SB-431542 (Selleckchem, cat. S1067), and gastrin (Tocris, cat. 3006).
# […]
# 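Also: spheroids exposed to compounds for seven days before readout.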
# 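For viability, T/C in this document: percent viability relative to DMSO vehicle control wells as 100%.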
smiles,measurement,setting,value
O=C(c1cc(Cc2n[nH]c(=O)c3ccccc23)ccc1F)N1CCN(C(=O)C2CC2)CC1 + CN(C)c1ccc(Nc2c3ccc(NC(=O)CCN4CCCC4)cc3nc3cc(NC(=O)CCN4CCCC4)ccc23)cc1,IC50,second compound 0.0316 µM,> 10 µM
same,IC50,second compound 0.1 µM,> 10 µM
same,IC50,second compound 0.316 µM,> 10 µM
same,IC50,second compound 1 µM,> 10 µM
same,IC50,second compound 3.16 µM,> 10 µM
same,IC50,second compound 10 µM,> 10 µM
same,"viability, T/C","second compound 0.0316 µM, first compound 0.0316 µM",90.6%
same,"viability, T/C","second compound 0.0316 µM, first compound 0.1 µM",92.6%
same,"viability, T/C","second compound 0.0316 µM, first compound 0.316 µM",103%
same,"viability, T/C","second compound 0.0316 µM, first compound 1 µM",103%
same,"viability, T/C","second compound 0.0316 µM, first compound 3.16 µM",111%
same,"viability, T/C","second compound 0.0316 µM, first compound 10 µM",79.3%
same,"viability, T/C","second compound 0.1 µM, first compound 0.0316 µM",96.3%
same,"viability, T/C","second compound 0.1 µM, first compound 0.1 µM",98.7%
same,"viability, T/C","second compound 0.1 µM, first compound 0.316 µM",102%
same,"viability, T/C","second compound 0.1 µM, first compound 1 µM",91.2%
same,"viability, T/C","second compound 0.1 µM, first compound 3.16 µM",86.5%
same,"viability, T/C","second compound 0.1 µM, first compound 10 µM",72.5%
same,"viability, T/C","second compound 0.316 µM, first compound 0.0316 µM",84.7%
same,"viability, T/C","second compound 0.316 µM, first compound 0.1 µM",90.8%
same,"viability, T/C","second compound 0.316 µM, first compound 0.316 µM",91.2%
same,"viability, T/C","second compound 0.316 µM, first compound 1 µM",95.3%
same,"viability, T/C","second compound 0.316 µM, first compound 3.16 µM",105%
same,"viability, T/C","second compound 0.316 µM, first compound 10 µM",81.5%
same,"viability, T/C","second compound 1 µM, first compound 0.0316 µM",107%
same,"viability, T/C","second compound 1 µM, first compound 0.1 µM",91.5%
same,"viability, T/C","second compound 1 µM, first compound 0.316 µM",90%
same,"viability, T/C","second compound 1 µM, first compound 1 µM",86.4%
same,"viability, T/C","second compound 1 µM, first compound 3.16 µM",89.4%
same,"viability, T/C","second compound 1 µM, first compound 10 µM",73.6%
same,"viability, T/C","second compound 3.16 µM, first compound 0.0316 µM",96.9%
same,"viability, T/C","second compound 3.16 µM, first compound 0.1 µM",93.7%
same,"viability, T/C","second compound 3.16 µM, first compound 0.316 µM",89.9%
same,"viability, T/C","second compound 3.16 µM, first compound 1 µM",90.8%
same,"viability, T/C","second compound 3.16 µM, first compound 3.16 µM",95.4%
same,"viability, T/C","second compound 3.16 µM, first compound 10 µM",68.4%
same,"viability, T/C","second compound 10 µM, first compound 0.0316 µM",94.7%
same,"viability, T/C","second compound 10 µM, first compound 0.1 µM",89.9%
same,"viability, T/C","second compound 10 µM, first compound 0.316 µM",77.4%
same,"viability, T/C","second compound 10 µM, first compound 1 µM",85.8%
same,"viability, T/C","second compound 10 µM, first compound 3.16 µM",84.7%
same,"viability, T/C","second compound 10 µM, first compound 10 µM",59.7%
